# Tested on: MCD diet NASH mouse model
# Experiment: Methionine Choline Deficient (MCD) diet NASH mouse model
# Assay type: in vivo
# Conditions: 62.5 mg/kg BID oral, 7 weeks
# Excerpt: According to one NASH model in mice (See Verdelho Machado et al., PlosOne May 27:10(5):e0127991 (2015)), male C57BL/6 inbred mice, aged 8 weeks, were obtained from Charles River, France. During the acclimation phase, standard (control chow) diet (RM1 (E) 801492, SDS) and tap water was provided ad libitum. Mice were then fed a Methionine Choline Deficient (MCD) diet (ref #A02082002B from Research Diets, USA) supplemented without or with the test item, provided ad libitum. All procedures were performed in accordance with the Guide for the Care and Use of Laboratory Animals (revised 1996 and 2011, 2010/63/EU) and French laws. 20 animals were housed in ventilated and enriched housing cages (310×125×127 mm^3) throughout the experimental phase. Animals' cages litters were changed at least once a week. They were housed in groups of 10 animals during the whole study, on a normal 12 hours light cycle (at 08:00 pm lights off), 22±2° C. and 50±10% relative humidity.
# After the acclimation period, mice (n=20) were weighed and randomized into 2 homogenous treatment groups based on body weight (n=10/group), put on a MCD diet, and treated BID orally with vehicle or MIN-102 for 7 weeks. Body weight was measured 3 times/week until the end of the experimental phase. At 7 weeks of diet/treatment, mice were weighed and treated at ˜08:00 am in the morning, then bled (maximal volume/EDTA) at ˜1:00 pm. Plasma was then immediately isolated and stored at […] prior to assay plasma ALT and AST. The plasma volume left over was stored at […] for eventual additional analysis.
# After blood collection, mice were sacrificed by cervical dislocation under isoflurane anesthesia and exsanguinated with sterile saline. Liver was collected and weighted. A ˜20 mg liver sample (weight recorded) was dissected for hepatic total cholesterol and triglycerides levels. A 0.5 cm^3 liver sample was frozen in isopentane for oil red O staining. […]
# A NAFLD scoring system (NAS) adapted from Kleiner et al. (Hepatology. 41(6):1313-1321 (2005)) was used. An individual mouse NAS total score was calculated for each animal by summing up the score for (1) hepatocellular steatosis, (2) liver inflammation, (3) lobular fibrosis, and (4) hepatocyte ballooning. […]
# Data are expressed as mean±SEM. […]
# The preventive effects of MIN-102 was evaluated in a 7-week Methionine Choline Deficient (MCD) diet NASH mouse model (Verdelho Machado et al.). […]
# After the acclimation period, C57BL6/J male mice (n=20) were weighed and randomized into 2 homogenous treatment groups based on body weight (n=10/group), put on a MCD diet, and treated BID orally with a vehicle or MIN-102 (125 mg/Kg/day) for 7 weeks. Body weight was measured 3 times/week until the end of the experimental phase. […]
structure (smiles),measurement,setting,value
"CC(O)c1ccc(CCOc2ccc(CC3SC(=O)NC3=O)cc2)nc1 (racemic) [MIN-102, 5-[[4-[2-[5-(1-hydroxyethyl)pyridin-2-yl]ethoxy]phenyl]methyl]-1,3-thiazolidine-2,4-dione]",Mean NAS group score,mean±SEM,0.44±01
same,reduction in hepatic triglycerides levels,vs vehicle,92%
same,reduction of plasma ALT level,vs vehicle,78%
same,reduction of plasma AST level,vs vehicle,55%

# From US11938122B2, “5-[[4-[2-[5-(1-hydroxyethyl)pyridin-2-yl]ethoxy]phenyl]methyl]-1,3- thiazolidine-2,4-dione for treating nonalcoholic fatty liver disease” (Minoryx Therapeutics S.L., priority 2016, dated 2024)
